Legend:
[1] = system: membrane fractions of P. aeruginosa (PAO1); experiment: ELISA binding to membrane fractions and solubilized membrane proteins of P. aeruginosa PAO1; parameters: species or system Pseudomonas aeruginosa; details: human cytokines, ELISA
[2] = system: PA-I promoter activity in reporter strain PA27853/PLL-EGFP
[3] = system: pyocyanin (PCN) production in P. aeruginosa PAO1; assay type: cell-based, Pseudomonas aeruginosa

## TGF-β
[1]
  binding to P. aeruginosa cell membranes: No binding

## IL-10: human cytokine
[1]
  binding to P. aeruginosa cell membranes: No binding

## Nc1ncnc2c1ncn2[C@@H]1O[C@H](COP(=O)(O)OP(=O)(O)O)[C@@H](O)[C@H]1O [ADP]
[2]
  PA-I expression, nucleosides and nucleotides: no evident inducing effects

## COC(=O)c1ccccc1N [MA, methyl anthranilate]
[3]
  effect on ability of U-50,488 to enhance PCN production: inhibited the ability of U-50,488 to enhance PCN production

## Nc1ncnc2c1ncn2[C@@H]1O[C@H](COP(=O)(O)OP(=O)(O)OP(=O)(O)O)[C@@H](O)[C@H]1O [ATP]
[2]
  PA-I expression, nucleosides and nucleotides: no evident inducing effects

## IL-4: human cytokine
[1]
  binding to P. aeruginosa cell membranes: No binding

## C[C@H](O)C(=O)O [L-lactate]
[2]
  PA-I promoter activity, candidate compounds in HDMEM: no effect

## EGF: human cytokine tested for membrane binding
[1]
  binding to P. aeruginosa cell membranes: No binding

## Nc1ncnc2c1ncn2[C@@H]1O[C@H](COP(=O)(O)O)[C@@H](O)[C@H]1O [AMP]
[2]
  PA-I expression, nucleosides and nucleotides: no evident inducing effects

## dynorphin
[3]
  PCN production (OD520 nm): enhanced PCN production in a dose-dependent manner

## Nc1ncnc2c1ncn2[C@@H]1O[C@H](CO)[C@@H](O)[C@H]1O [adenosine]
[2]
  PA-I expression, nucleosides and nucleotides: both dose- and time-dependent
  PA-I promoter activity, candidate compounds in HDMEM: enhanced fluorescence

## OC[C@H]1O[C@@H](n2cnc3c(O)ncnc32)[C@H](O)[C@@H]1O [inosine]
[2]
  inosine concentration inducing PA-I expression, fold less than adenosine of equivalent effect: 10 fold
  onset of PA-I expression compared with adenosine: earlier time point
  size of effect on PA-I expression compared with adenosine: greater

## Oc1ccc2c3c1O[C@H]1c4[nH]c5c(c4C[C@@]4(O)[C@@H](C2)N(CC2CC2)CC[C@]314)C[C@@]1(O)[C@H]2Cc3ccc(O)c4c3[C@@]1(CCN2CC1CC1)[C@H]5O4 [norbinaltorphimine, nor-binaltorphimine]
[3]
  dose that completely inhibits enhanced PCN production: 200 µM
  effect on U-50,488-enhanced PCN production: attenuates enhanced PCN production

## C[C@@H](O)C(=O)O [D-lactate]
[2]
  PA-I promoter activity, candidate compounds in HDMEM: no effect

B1: adenosine deaminase: enzyme added to deplete the media of adenosine (protein, UniProt P00813 2-363, looked up)
Adenosine deaminase: AQTPAFDKPKVELHVHLDGSIKPETILYYGRRRGIALPANTAEGLLNVIGMDKPLTLPDFLAKFDYYMPAIAGCREAIKRIAYEFVEMKAKEGVVYVEVRYSPHLLANSKVEPIPWNQAEGDLTPDEVVALVGQGLQEGERDFGVKARSILCCMRHQPNWSPKVVELCKKYQQQTVVAIDLAGDETIPGSSLLPGHVQAYQEAVKSGIHRTVHAGEVGSAEVVKEAVDILKTERLGHGYHTLEDQALYNRLRQENMHFEICPWSSYLTGAWKPDTEHAVIRLKNDQANYSLNTDDPLIFKSTLDTDYQMTKRDMGFTEEEFKRLNINAAKSSFLPEDEKRELLDLLYKAYGMPPSASAGQNL
[2]; Caco-2
  PA-I expression after depleting adenosine from media of HIF-1-a-activated Caco-2 cells: even greater increase in PA-I expression

From patent publication US20070059272A1 (priority 2005, published 2007)
